Experimental data from US4087432A, “1H-imidazo(4,5-b)pyridine compounds” (Eli Lilly and Company, priority 1975, dated 1978).

Columns and labels:
Crabgrass [1] = experiment: Preemergent injury rating, crabgrass; format: in vivo, large crabgrass; set-up: key: injury rating scale on which 4 = death
Procedure: (§1) Various of the compounds to be employed as active agent in accordance with the present invention were evaluated for preemergent application to various species of plants. In this evaluation, a soil was prepared consisting of one part masonry sand and one part shredded top soil blended together in a cement mixer. One gallon of this soil was placed in a 25 × 35 cm. galvanized flat and was patted down with a bench brush until level. A three-row marker was used to make 21/2 cm. deep furrows in approximately two-fifths of the flat. Crop seeds consisting of four kernels of corn, five cotton seeds and five soybean seeds were placed in these furrows. A four-row template was then placed on the remaining soil and the indicated approximate numbers of each of the following seeds were planted, one species to each section: foxtail (millet), 80-100 seeds; velvetleaf (40-50 seeds); rough pigweed (150-250 seeds); and large crabgrass (100-150 seeds).
(§2) Sufficient soil was added to cover the entire flat. Thus, the weed seeds were covered to a depth of about 6 mm. and the crop seeds were covered to a depth of about 3 cm.
(§3) In assaying the effect of the composition as preemergent herbicides, a flat prepared as above, taken either on the day of planting or on the next day, was placed in a chamber equipped with a turntable and an air exhaust. The herbicidal composition, either a spray-type emulsion or a wettable powder, was applied to the flat with a modified DeVilbiss atomizer hooked to an air source. Twelve and one-half milliliters of the composition under test were applied to each flat either on the day of planting or the succeeding day. Injury ratings and observations as to type of injury were made eleven to twelve days after treatment. The injury rating scale used was as follows:
(§4) 4--death When more than one determination was carried out at a given rate, an average value was calculated for the injury rating. Each compound evaluated was formulated as a spray by one of the following procedures. In one method the particular compound was wetted by grinding in a mortar with one part of polyoxyethylene sorbitan monolaurate. Five hundred parts of water were added slowly to the resultant creamy paste to give an aqueous dispersion with a surfactant concentration of 0.2 percent. This dispersion was entirely satisfactory for spray application. In a second procedure the compound was dissolved in one volume of acetone, and the acetone solution was diluted with nineteen volumes of water containing 0.1 percent of polyoxyethylene sorbitan monolaurate.
(§5) In the following table setting forth the results of the evaluation, column 1 gives the name of the compound under test; column 2, the rate in pounds per acre at which the compound was applied to the test flat; and the remaining columns, the injury to the particular plant seeds or seedlings as measured by the foregoing scale.

Soybean [2] = experiment: Postemergent injury rating, soybean; format: in vivo
Procedure: as §1, §2, §3, §4
(§6) Representative compounds of the present invention were evaluated for postemergent application to plants including corn and several weed species. The evaluation was carried out in accordance with the procedures of Examples 49-52 except that the test solutions were applied about 9-12 days after the preparation and seeding of the flats.

Soybean [3] = experiment: Preemergent injury rating, soybean; format: in vivo; set-up: key: injury rating scale on which 4 = death
Procedure: as §1, §2, §3, §4, §5

Foxtail [4] = experiment: Preemergent injury rating, foxtail; format: in vivo, foxtail (millet); set-up: key: injury rating scale on which 4 = death
Procedure: as §1, §2, §3, §4, §5

Corn [5] = experiment: Postemergent injury rating, corn; format: in vivo; set-up: key: injury rating scale, 4 = death
Procedure: as §1, §2, §3, §4, §6

Cotton [6] = experiment: Postemergent injury rating, cotton; format: in vivo
Procedure: as §1, §2, §3, §4, §6

Pigweed [7] = experiment: Postemergent injury rating, pigweed; format: in vivo, rough pigweed; set-up: key: injury rating scale, 4 = death
Procedure: as §1, §2, §3, §4, §6

Crabgrass [8] = experiment: Postemergent injury rating, crabgrass; format: in vivo, large crabgrass; set-up: key: injury rating scale, 4 = death
Procedure: as §1, §2, §3, §4, §6

Corn [9] = experiment: Preemergent injury rating, corn; format: in vivo; set-up: key: injury rating scale on which 4 = death
Procedure: as §1, §2, §3, §4, §5

Cotton [10] = experiment: Preemergent injury rating, cotton; format: in vivo; set-up: key: injury rating scale on which 4 = death
Procedure: as §1, §2, §3, §4, §5

Foxtail [11] = experiment: Postemergent injury rating, foxtail; format: in vivo, foxtail (millet); set-up: key: injury rating scale, 4 = death
Procedure: as §1, §2, §3, §4, §6

Velvet Leaf [12] = experiment: Postemergent injury rating, velvetleaf; format: in vivo
Procedure: as §1, §2, §3, §4, §6

Velvet Leaf [13] = experiment: Preemergent injury rating, velvetleaf; format: in vivo; set-up: key: injury rating scale on which 4 = death; conditions: 2 lbs/acre
Procedure: as §1, §2, §3, §4, §5

Pigweed [14] = experiment: Preemergent injury rating, pigweed; format: in vivo, rough pigweed; set-up: key: injury rating scale on which 4 = death; conditions: 2 lbs/acre
Procedure: as §1, §2, §3, §4, §5

## On1c(C(F)(F)F)nc2ncc(C(F)(F)F)cc21 [1-hydroxy-2,6-bis(trifluoromethyl)-1H-imidazo(4,5-b)pyridine]
Crabgrass [1]; 8 lbs/acre
  Injury Rating, Crabgrass: 4
Soybean [2]; 1 lbs/acre
  Injury Rating, Soybean: 4
Soybean [2]; 2 lbs/acre
  Injury Rating, Soybean: 4
Soybean [2]; 4 lbs/acre
  Injury Rating, Soybean: 4
Soybean [2]; 8 lbs/acre
  Injury Rating, Soybean: 4
Soybean [3]; 8 lbs/acre
  Injury Rating, Soybean: 3
Foxtail [4]; 8 lbs/acre
  Injury Rating, Foxtail: 4
Corn [5]; 1 lbs/acre
  Injury Rating, Corn: 1
Corn [5]; 2 lbs/acre
  Injury Rating, Corn: 4
Corn [5]; 4 lbs/acre
  Injury Rating, Corn: 4
Corn [5]; 8 lbs/acre
  Injury Rating, Corn: 4
Cotton [6]; 1 lbs/acre
  Injury Rating, Cotton: 4
Cotton [6]; 2 lbs/acre
  Injury Rating, Cotton: 4
Cotton [6]; 4 lbs/acre
  Injury Rating, Cotton: 4
Cotton [6]; 8 lbs/acre
  Injury Rating, Cotton: 4
Pigweed [7]; 1 lbs/acre
  Injury Rating, Pigweed: 4
Pigweed [7]; 2 lbs/acre
  Injury Rating, Pigweed: 4
Pigweed [7]; 4 lbs/acre
  Injury Rating, Pigweed: 4
Pigweed [7]; 8 lbs/acre
  Injury Rating, Pigweed: 4
Crabgrass [8]; 1 lbs/acre
  Injury Rating, Crabgrass: 4
Crabgrass [8]; 2 lbs/acre
  Injury Rating, Crabgrass: 4
Crabgrass [8]; 4 lbs/acre
  Injury Rating, Crabgrass: 4
Crabgrass [8]; 8 lbs/acre
  Injury Rating, Crabgrass: 4
Corn [9]; 8 lbs/acre
  Injury Rating, Corn: 3
Cotton [10]; 8 lbs/acre
  Injury Rating, Cotton: 4
Foxtail [11]; 1 lbs/acre
  Injury Rating, Foxtail: 4
Foxtail [11]; 2 lbs/acre
  Injury Rating, Foxtail: 4
Foxtail [11]; 4 lbs/acre
  Injury Rating, Foxtail: 4
Foxtail [11]; 8 lbs/acre
  Injury Rating, Foxtail: 4
Velvet Leaf [12]; 1 lbs/acre
  Injury Rating, Velvet Leaf: 4
Velvet Leaf [12]; 2 lbs/acre
  Injury Rating, Velvet Leaf: 4
Velvet Leaf [12]; 4 lbs/acre
  Injury Rating, Velvet Leaf: 4
Velvet Leaf [12]; 8 lbs/acre
  Injury Rating, Velvet Leaf: 4

## CS(=O)(=O)c1cnc2nc(C(F)(F)F)n(O)c2c1 [6-(methylsulfonyl)-1-hydroxy-2-(trifluoromethyl)-1H-imidazo(4,5-b)pyridine]
Velvet Leaf [13]
  Injury Rating, Velvet Leaf: 2
Crabgrass [1]; 2 lbs/acre
  Injury Rating, Crabgrass: 2
Soybean [2]; 1 lbs/acre
  Injury Rating, Soybean: 3
Soybean [2]; 2 lbs/acre
  Injury Rating, Soybean: 4
Soybean [3]; 2 lbs/acre
  Injury Rating, Soybean: 2
Foxtail [4]; 2 lbs/acre
  Injury Rating, Foxtail: 2
Corn [5]; 1 lbs/acre
  Injury Rating, Corn: 1
Corn [5]; 2 lbs/acre
  Injury Rating, Corn: 2
Cotton [6]; 1 lbs/acre
  Injury Rating, Cotton: 3
Cotton [6]; 2 lbs/acre
  Injury Rating, Cotton: 4
Pigweed [7]; 1 lbs/acre
  Injury Rating, Pigweed: 3
Pigweed [7]; 2 lbs/acre
  Injury Rating, Pigweed: 4
Crabgrass [8]; 1 lbs/acre
  Injury Rating, Crabgrass: 2
Crabgrass [8]; 2 lbs/acre
  Injury Rating, Crabgrass: 2
Corn [9]; 2 lbs/acre
  Injury Rating, Corn: 0
Cotton [10]; 2 lbs/acre
  Injury Rating, Cotton: 0
Pigweed [14]
  Injury Rating, Pigweed: 3
Foxtail [11]; 1 lbs/acre
  Injury Rating, Foxtail: 4
Foxtail [11]; 2 lbs/acre
  Injury Rating, Foxtail: 4
